Data on one compound can be found in patent publication US12360106B2, “Photochromic xanthene fluorophores and their utility in live-cell imaging beyond the diffraction limit” (HOWARD HUGHES MEDICAL INSTITUTE, priority 2017, dated 2025).

Molecules are shown by their SMILES.

The data set can be described thus: water solubility (comparative statement). In kind it is physicochemical. The conditions noted are these: compared to PC-JF549-NHS.

With `COCCOCCOCCOCCNC(=O)c1cc2ccc(N3C(=O)c4ccc(C(=O)ON5C(=O)CCC5=O)cc4C34c3ccc(N5CCC5)cc3[Si](C)(C)c3cc(N5CCC5)ccc34)cc2oc1=O` [PC-JF646-PEG-NHS, 2,5-dioxopyrrolidin-1-yl 2′-(3-((2,5,8,11-tetraoxatridecan-13-yl)carbamoyl)-2-oxo-2H-chromen-7-yl)-3,7-di(azetidin-1-yl)-5,5-dimethyl-3′-oxo-5H-spiro[dibenzo[b,e]siline-10,1′-isoindoline]-6′-carboxylate], the water solubility result is reported as “better water solubility”.
